We go through 13 compounds from patent US9447073B2, “Fungicidal compositions” (Viamet Pharmaceuticals, Inc., priority 2013, dated 2016).

The structures appear in SMILES notation. Like-named read-outs stand apart in the source and are kept apart here.

In data set [1] the test system is Puccinia triticina (Synonym: Puccinia recondita f sp. tritici; Bayer Code PUCCRT). In words: Fungicidal activity: Wheat Brown Rust (PUCCRT), wheat seedlings in greenhouse. The settings on record: wheat (variety Yuma). The data set is classed as in vivo. As for the experimental part: Technical grades of materials were dissolved in acetone, which were then mixed with nine volumes of water containing 110 ppm Triton X-100. The fungicide solutions were applied onto wheat seedlings using an automated booth sprayer to run-off. All sprayed plants were allowed to air dry prior to further handling.
(§1) Wheat plants (variety Yuma) were grown from seed in a greenhouse in 50% mineral soil/50% soil-less Metro mix until the first leaf was fully emerged, with 7-10 seedlings per pot. These plants were inoculated with an aqueous spore suspension of Septoria tritici either prior to or after fungicide treatments. After inoculation the plants were kept in 100% relative humidity (one day in a dark dew chamber followed by two to three days in a lighted dew chamber at 20° C.) to permit spores to germinate and infect the leaf. The plants were then transferred to a greenhouse set at 20° C. for disease to develop. When disease symptoms were fully expressed on the 1st leaves of untreated plants, infection levels were assessed on a scale of 0 to 100 percent disease severity. Percent disease control was calculated using the ratio of disease severity on treated plants relative to untreated plants.
Wheat plants (variety Yuma) were grown from seed in a greenhouse in 50% mineral soil/50% soil-less Metro mix until the first leaf was fully emerged, with 7-10 seedlings per pot. These plants were inoculated with an aqueous spore suspension of Puccinia triticina either prior to or after fungicide treatments. After inoculation the plants were kept in a dark dew room at 22° C. with 100% relative humidity overnight to permit spores to germinate and infect the leaf. The plants were then transferred to a greenhouse set at 24° C. for disease to develop. Fungicide formulation, application and disease assessment followed the procedures as described in Example 18.

Data set [2] has as its system Mycosphaerella graminicola (Anamorph: Septoria tritici; Bayer Code SEPTTR). In words: Fungicidal activity: Leaf Blotch of Wheat (SEPTTR), wheat seedlings in greenhouse. The data set is classed as in vivo. On the set-up: key to Disease Control SEPTTR 1DP: A: 80-100; B: More than 0—Less than 80; C: Not Tested; D: No activity noticed in this bioassay. The note with it: wheat (variety Yuma); for pest or weed control at 50 ppm: Zymoseptoria tritici. How it is done: as §1, with “Technical grades of materials were dissolved in acetone, which were then mixed with nine volumes of water containing 110 ppm Triton X-100. The fungicide solutions were applied onto wheat seedlings using an automated booth sprayer to run-off. All sprayed plants were allowed to air dry prior to further handling. Wheat” for “Wheat”

[3] abbreviates: 1DC, read-out: Disease Control PUCCRT 1DC.
Setting [4] is: 1DP, read-out: Disease Control PUCCRT 1DP.
The mark [5] stands for this setting: 1DP, read-out: Disease Control SEPTTR 1DP.
The mark [6] stands for this setting: 3DC, read-out: Disease Control SEPTTR 3DC.

Take `NC(=S)c1ccc(Oc2ccc(C(F)(F)C(O)(Cn3nn[nH]c3=S)c3ccc(F)cc3F)nc2)cc1` (centres unmarked) [Compound F1, 4-((6-(2-(2,4-difluorophenyl)-1,1-difluoro-2-hydroxy-3-(5-thioxo-4,5-dihydro-1H-tetrazol-)propyl)pyridin-3-yl)oxy)benzothioamide]: the melting point (commonly the temperature of the solid-liquid transition) was 214 to 218 °C. Besides, the pest or weed control at 50 ppm in data set [1] (setting [3]) fell in the range of 80 to 100%. Moreover, in data set [1] (setting [4]), the pest or weed control at 50 ppm lay in the range of 80 to 100%. In addition, the pest or weed control at 50 ppm in data set [2] (setting [5]) fell in the range of 80 to 100%. The pest or weed control at 50 ppm in data set [2] (setting [6]) fell in the range of 80 to 100%.
For the compound `N#Cc1ccc(Oc2ccc(C(F)(F)C(O)(Cn3nn[nH]c3=S)c3ccc(F)cc3F)nc2)cc1` (centres unmarked) [Compound F2, 4-((6-(2-(2,4-difluorophenyl)-1,1-difluoro-2-hydroxy-3-(5-thioxo-4,5-dihydro-1H-tetrazol-)propyl)pyridin-3-yl)oxy)benzonitrile], the pest or weed control at 50 ppm in data set [1] (setting [4]), in data set [2] (setting [5]) and in data set [2] (setting [6]) was 80 to 100% each time.
As for `N#Cc1ccc(Oc2ccc(C(F)(F)C(O)(Cn3nn[nH]c3=S)c3ccc(F)cc3F)nc2)nc1` (centres unmarked) [Compound F3], the pest or weed control at 50 ppm in data set [1] (setting [3]) fell in the range of 80 to 100%; in data set [1] (setting [4]), 80 to 100%; in data set [2] (setting [5]) it was 80 to 100%; in data set [2] (setting [6]) it was 0 to 80%.
In the case of `OC(Cn1nn[nH]c1=S)(c1ccc(F)cc1F)C(F)(F)c1ccc(Oc2ccc(Cl)cn2)cn1` (centres unmarked) [Compound F4], the pest or weed control at 50 ppm in data set [1] (setting [3]), in data set [1] (setting [4]), in data set [2] (setting [5]) and in data set [2] (setting [6]) was 80 to 100% each time.
`OC(Cn1nn[nH]c1=S)(c1ccc(F)cc1F)C(F)(F)c1ccc(OCC(F)(F)F)cn1` (centres unmarked) [Compound F5]: the pest or weed control at 50 ppm in data set [1] (setting [3]), in data set [1] (setting [4]), in data set [2] (setting [5]) and in data set [2] (setting [6]) was 80 to 100% in each case.
On to `CSc1nnnn1CC(O)(c1ccc(F)cc1F)C(F)(F)c1ccc(Br)cn1` (centres unmarked) [Compound F6, 1-(5-bromopyridin-2-yl)-2-(2,4-difluorophenyl)-1,1-difluoro-3-(5-(methylthio)-1H-tetrazol-1-yl)propan-2-ol], for which the pest or weed control at 50 ppm in data set [1] (setting [3]) was 80 to 100%; in data set [1] (setting [4]) it was 0 to 80%; in data set [2] (setting [6]), 0 to 80%. The “Disease Control SEPTTR 1DP” value in data set [2] (50 ppm, 1DP) is on record as “D”.
For `CCSc1nnnn1CC(O)(c1ccc(F)cc1F)C(F)(F)c1ccc(Oc2ccc(C#N)cc2)cn1` (centres unmarked) [Compound F7], the pest or weed control at 50 ppm in data set [1] (setting [3]) was in the range of 80 to 100%; in data set [1] (setting [4]), 80 to 100%; in data set [2] (setting [5]) it was 0 to 80%; in data set [2] (setting [6]), 80 to 100%.
Take `OC(Cn1nn[nH]c1=S)(c1ccc(F)cc1F)C(F)(F)c1ccc(Oc2ccc(C(F)(F)F)cn2)cn1` (centres unmarked) [Compound F8]: the pest or weed control at 50 ppm in data set [1] (setting [3]), in data set [1] (setting [4]), in data set [2] (setting [5]) and in data set [2] (setting [6]) was 80 to 100% in each case.
`OC(Cn1nn[nH]c1=S)(c1ccc(F)cc1F)C(F)(F)c1ccc(COC(F)F)cn1` (centres unmarked) [Compound F9]: the pest or weed control at 50 ppm in data set [1] (setting [3]), in data set [1] (setting [4]), in data set [2] (setting [5]) and in data set [2] (setting [6]) was 80 to 100% in each case.
In turn, `OC(Cn1nn[nH]c1=S)(c1ccc(F)cc1F)C(F)(F)c1ccc(OC2CC2(F)F)cn1` (centres unmarked) [Compound F10] registered a melting point of 53 to 57 °C. Also, the pest or weed control at 50 ppm in data set [1] (setting [3]) is 80 to 100%. Besides, the pest or weed control at 50 ppm in data set [1] (setting [4]) lay in the range of 80 to 100%. In addition, the pest or weed control at 50 ppm in data set [2] (setting [5]) is 80 to 100%. In data set [2] (setting [6]), the pest or weed control at 50 ppm lay within 80 to 100%.
Regarding `CSc1nnnn1CC(O)(c1ccc(F)cc1F)C(F)(F)c1ccc(Oc2ccc(C#N)cc2)cn1` (centres unmarked) [Compound F11, 4-((6-(2-(2,4-difluorophenyl)-1,1-difluoro-2-hydroxy-3-(5-(methylthio)-1H-tetrazol-1-yl)propyl)pyridin-3-yl)oxy)benzonitrile], the pest or weed control at 50 ppm in data set [1] (setting [4]), in data set [2] (setting [5]) and in data set [2] (setting [6]) was 80 to 100% in each case.
`N#Cc1ccc(Oc2ccc(C(F)(F)C(O)(Cn3nnnc3SCc3ccccc3)c3ccc(F)cc3F)nc2)cc1` (centres unmarked) [Compound F12]: the pest or weed control at 50 ppm lay within 80 to 100% in data set [1] (setting [4]), 0 to 80% in data set [2] (setting [5]) and 80 to 100% in data set [2] (setting [6]).
`N#Cc1ccc(Oc2ccc(C(F)(F)C(O)(Cn3nnnc3SCC3CC3)c3ccc(F)cc3F)nc2)cc1` (centres unmarked) [Compound F13]: the pest or weed control at 50 ppm in data set [1] (setting [4]), in data set [2] (setting [5]) and in data set [2] (setting [6]) was 80 to 100% each time.
